Assay results from US20140378454A1, “NOVEL METHODS” (XSPRAY MICROPARTICLES AB, priority 2012, published 2014).
Counter-ions that a name gives are not always drawn.

Legend:
[1] = Dissolution measurement assay (apparent solubility) in FaSSIF, pH 6.5; format: physicochemical; design: AUC/90 min / AUC/80 min: concentration or dose not given beside the values; conditions: for AUC/80 min: during 80 min dissolution
[2] = Dissolution rate measurement in sink conditions, flow through cell system, FaSSIF, 37° C.; format: physicochemical; conditions: sink condition in FaSSIF; for Initial Dissolution Rate: initial slope of accumulated % solubilized vs time, 0 to 10 minutes
Method: The temperature of the apparatus was set to 37° C. The amount of powder added into the cell depends on drug load of the powder: The exact amount of powder was calculated from results obtained from drug load analysis of the powders.
Typically, 3.5 to 7 mg PKI was added into the flow through cell and a flow rate between 8 and 16 ml medium/min (preferably about 8 ml medium/min) was pumped through the powder. One ml samples of the medium passing through the cell were collected at predetermined times. […] Samples were taken after 0, 0.5, 1, 1.5, 2, 3, 4, 5, 6, 7, 8, 9, 10, 15, 20, 25, 30, 35 and 40 min from the moment the medium comes out from the flow through cell. The accumulated % solubilized of the amount of active substance added into the flow through cell was calculated and plotted against time (min). The initial slope (“initial dissolution rate”) of the graph was estimated, as measured during 0 to 10 minutes, and taken as the dissolution rate of the material in sink condition at 37° C. in the given dissolution medium.

[3] = concentration of nilotinib HCl, FaSSIF solution (pH 6.5), 5 minutes dissolution, HCl
[4] = concentration of nilotinib HCl, FaSSIF solution (pH 6.5), 30 minutes dissolution, HCl
[5] = concentration of nilotinib HCl, FaSSIF solution (pH 6.5), 90 minutes dissolution, HCl
[6] = nilotinib HCl, FaSSIF solution (pH 6.5), 30 minutes dissolution, HCl
[7] = nilotinib HCl, FaSSIF solution (pH 6.5), Area Under the Curve during 90 minutes dissolution, HCl

Cc1cn(-c2cc(NC(=O)c3ccc(C)c(Nc4nccc(-c5cccnc5)n4)c3)cc(C(F)(F)F)c2)cn1 [Exp 1, Nilotinib HCl]
Conc (mg/L) 5 min [1, 3]: 0.1 mg/L | Conc (mg/L) 30 min [1, 4]: 0.2 mg/L | Conc (mg/L) 90 min [1, 5]: 0.1 mg/L | % solubilized 30 min. [1, 6]: 0.20% | AUC/90 min Mg/min/L [1, 7]: 13.0 Mg/min/L

Cc1cn(-c2cc(NC(=O)c3ccc(C)c(Nc4nccc(-c5cccnc5)n4)c3)cc(C(F)(F)F)c2)cn1 [Exp 2, Nilotinib HCl]
Conc (mg/L) 5 min [1, 3]: 0.2 mg/L | Conc (mg/L) 30 min [1, 4]: 0.2 mg/L | Conc (mg/L) 90 min [1, 5]: 0.2 mg/L | % solubilized 30 min. [1, 6]: 0.04% | AUC/90 min Mg/min/L [1, 7]: 23.5 Mg/min/L

Cc1cn(-c2cc(NC(=O)c3ccc(C)c(Nc4nccc(-c5cccnc5)n4)c3)cc(C(F)(F)F)c2)cn1 [Exp 3, Nilotinib HCl]
Conc (mg/L) 5 min [1, 3]: 0.2 mg/L | Conc (mg/L) 30 min [1, 4]: 0.3 mg/L | Conc (mg/L) 90 min [1, 5]: 0.2 mg/L | % solubilized 30 min. [1, 6]: 0.03% | AUC/90 min Mg/min/L [1, 7]: 21.8 Mg/min/L

Cc1cn(-c2cc(NC(=O)c3ccc(C)c(Nc4nccc(-c5cccnc5)n4)c3)cc(C(F)(F)F)c2)cn1 [Exp 4, Nilotinib Base]
Conc (mg/L) 5 min ([1]; concentration of nilotinib HCl, FaSSIF solution (pH 6.5), 5 minutes dissolution): 0.6 mg/L | Conc (mg/L) 30 min ([1]; concentration of nilotinib HCl, FaSSIF solution (pH 6.5), 30 minutes dissolution): 0.5 mg/L | Conc (mg/L) 90 min ([1]; concentration of nilotinib HCl, FaSSIF solution (pH 6.5), 90 minutes dissolution): 0.2 mg/L | % solubilized 30 min. ([1]; nilotinib HCl, FaSSIF solution (pH 6.5), 30 minutes dissolution): 0.50% | AUC/90 min Mg/min/L ([1]; nilotinib HCl, FaSSIF solution (pH 6.5), Area Under the Curve during 90 minutes dissolution): 36.5 Mg/min/L

C#Cc1cccc(Nc2ncnc3cc(OCCOC)c(OCCOC)cc23)c1 [Exp 58, erlotinib HCl]
Conc (mg/L) 5 min ([1]; 5 min, pH 6.5): 28.9 mg/L | Conc (mg/L) 30 min ([1]; 30 min, pH 6.5): 6.25 mg/L | Conc (mg/L) 90 min ([1]; 90 min, pH 6.5): 4.6 mg/L | % solubilized 30 min. ([1]; erlotinib HCl, FaSSIF pH 6.5, 30 min dissolution): 0.6% | AUC/90 min Mg/min/L ([1]; erlotinib HCl, FaSSIF pH 6.5, during 90 min dissolution): 837 Mg/min/L

Cc1ccc(Nc2nccc(N(C)c3ccc4c(C)n(C)nc4c3)n2)cc1S(N)(=O)=O [Exp 84, pazopanib]
Conc (mg/L) 5 min ([1]; 5 min, pH 6.5): 46.2 mg/L | % solubilized 30 min. ([1]; 30 min, pH 6.5): 2.4% | Conc (mg/L) 30 min ([1]; 30 min, pH 6.5): 24.4 mg/L | Conc (mg/L) 90 min ([1]; 90 min, pH 6.5): 15.0 mg/L

CS(=O)(=O)CCNCc1ccc(-c2ccc3ncnc(Nc4ccc(OCc5cccc(F)c5)c(Cl)c4)c3c2)o1 [Exp 110, lapatinib base]
Conc (mg/L) 5 min ([1]; concentration of lapatinib after 5 min dissolution, FaSSIF pH 6.5): 2.9 mg/L | Conc (mg/L) 30 min ([1]; concentration of lapatinib after 30 min dissolution, FaSSIF pH 6.5): 6.0 mg/L | Conc (mg/L) 90 min ([1]; concentration of lapatinib after 90 min dissolution, FaSSIF pH 6.5): 6.5 mg/L | % solubilized 30 min. ([1]; lapatinib, 30 min dissolution, FaSSIF pH 6.5): 0.3% | AUC/90 min ([1]; lapatinib, during 90 min dissolution, FaSSIF pH 6.5): 494 Mg/min/L

COc1cc2ncnc(Nc3ccc(F)c(Cl)c3)c2cc1OCCCN1CCOCC1 [Exp 131, gefitinib]
Conc (mg/L) 3 min ([1]; concentration of gefitinib after 3 min dissolution, FaSSIF pH 6.5): 121.8 mg/L | Conc (mg/L) 40 min ([1]; concentration of gefitinib after 40 min dissolution, FaSSIF pH 6.5): 153.1 mg/L | Conc (mg/L) 80 min ([1]; concentration of gefitinib after 80 min dissolution, FaSSIF pH 6.5): 148.1 mg/L | % solubilized 40 min. ([1]; gefitinib, 40 min dissolution, FaSSIF pH 6.5): 15.3% | AUC/80 min ([1]; gefitinib, FaSSIF pH 6.5): 5967 Mg/min/L

Cc1nc(Nc2ncc(C(=O)Nc3c(C)cccc3Cl)s2)cc(N2CCN(CCO)CC2)n1 [Exp 138, dasatinib]
Conc (mg/L) 3 min ([1]; 3 min, pH 6.5): 34.5 mg/L | Conc (mg/L) 40 min ([1]; 40 min, pH 6.5): 59.7 mg/L | Conc (mg/L) 80 min ([1]; 80 min, pH 6.5): 63.5 mg/L | % solubilized 40 min. ([1]; dasatinib, 40 min dissolution, FaSSIF pH 6.5): 6.0% | AUC/80 min ([1]; dasatinib, FaSSIF pH 6.5): 2396 Mg/min/L

CNC(=O)c1cc(Oc2ccc(NC(=O)Nc3ccc(Cl)c(C(F)(F)F)c3)cc2)ccn1 [Exp 142, sorafenib tosylate]
Conc (mg/L) 3 min ([1]; 3 min, pH 6.5): 59.1 mg/L | % solubilized 40 min. ([1]; 40 min, pH 6.5): 34.4% | Conc (mg/L) 40 min ([1]; 40 min, pH 6.5): 343.5 mg/L | Conc (mg/L) 80 min ([1]; 80 min, pH 6.5): 311.5 mg/L

C[C@@H](Oc1cc(-c2cnn(C3CCNCC3)c2)cnc1N)c1c(Cl)ccc(F)c1Cl [Exp 150, crizotinib]
Conc (mg/L) 3 min ([1]; 3 min, pH 6.5): 89.3 mg/L | % solubilized 40 min. ([1]; 40 min, pH 6.5): 22.7% | Conc (mg/L) 40 min ([1]; 40 min, pH 6.5): 226.5 mg/L | Conc (mg/L) 80 min ([1]; 80 min, pH 6.5): 295.6 mg/L

CNC(=O)c1ccccc1Sc1ccc2c(/C=C/c3ccccn3)n[nH]c2c1 [Exp 157, axitinib]
Conc (mg/L) 3 min ([1]; 3 min, pH 6.5): 0.6 mg/L | Conc (mg/L) 40 min ([1]; 40 min, pH 6.5): 0.6 mg/L | Conc (mg/L) 80 min ([1]; 80 min, pH 6.5): 0.6 mg/L | % solubilized 40 min. ([1]; axitinib, 40 min dissolution, FaSSIF pH 6.5): 0.1% | AUC/80 min ([1]; axitinib, FaSSIF pH 6.5): 47 Mg/min/L

CCCS(=O)(=O)Nc1ccc(F)c(C(=O)c2c[nH]c3ncc(-c4ccc(Cl)cc4)cc23)c1F [Exp 164, vemurafenib]
Conc (mg/L) 3 min ([1]; 3 min, pH 6.5): 0.3 mg/L | % solubilized 40 min. ([1]; 40 min, pH 6.5): 0.1% | Conc (mg/L) 40 min ([1]; 40 min, pH 6.5): 0.3 mg/L | Conc (mg/L) 80 min ([1]; 80 min, pH 6.5): 0.4 mg/L

Cc1cn(-c2cc(NC(=O)c3ccc(C)c(Nc4nccc(-c5cccnc5)n4)c3)cc(C(F)(F)F)c2)cn1 [Exp 500, nilotinib HCl]
Initial Dissolution Rate [2]: 0.27

C#Cc1cccc(Nc2ncnc3cc(OCCOC)c(OCCOC)cc23)c1 [Exp 510, erlotinib HCl]
Initial Dissolution Rate [2]: 0.303

CS(=O)(=O)CCNCc1ccc(-c2ccc3ncnc(Nc4ccc(OCc5cccc(F)c5)c(Cl)c4)c3c2)o1 [Exp 530, lapatinib ditosylate]
Initial Dissolution Rate [2]: 0.103

COc1cc2ncnc(Nc3ccc(F)c(Cl)c3)c2cc1OCCCN1CCOCC1 [Exp 540, gefitinib]
Initial Dissolution Rate [2]: 2.2

CNC(=O)c1cc(Oc2ccc(NC(=O)Nc3ccc(Cl)c(C(F)(F)F)c3)cc2)ccn1 [Exp 560, sorafenib tosylate]
Initial Dissolution Rate [2]: 0.47

C[C@@H](Oc1cc(-c2cnn(C3CCNCC3)c2)cnc1N)c1c(Cl)ccc(F)c1Cl [Exp 570, crizotinib]
Initial Dissolution Rate [2]: 6.6

CNC(=O)c1cc(Oc2ccc(NC(=O)Nc3ccc(Cl)c(C(F)(F)F)c3)cc2)ccn1.Cc1ccc(S(=O)(=O)O)cc1 [Experiment 560]
Accumulated % of solubilized of remaining active substance at a given time (min) ([2]; 0 min): 0.2% | Accumulated % of solubilized of remaining active substance at a given time (min) ([2]; 0.5 min): 0.4% | Accumulated % of solubilized of remaining active substance at a given time (min) ([2]; 1 min): 0.7% | Accumulated % of solubilized of remaining active substance at a given time (min) ([2]; 1.5 min): 1.0% | Accumulated % of solubilized of remaining active substance at a given time (min) ([2]; 2 min): 1.3% | Accumulated % of solubilized of remaining active substance at a given time (min) ([2]; 3 min): 1.8% | Accumulated % of solubilized of remaining active substance at a given time (min) ([2]; 4 min): 2.2% | Accumulated % of solubilized of remaining active substance at a given time (min) ([2]; 5 min): 2.6% | Accumulated % of solubilized of remaining active substance at a given time (min) ([2]; 6 min): 3.0% | Accumulated % of solubilized of remaining active substance at a given time (min) ([2]; 7 min): 3.4% | Accumulated % of solubilized of remaining active substance at a given time (min) ([2]; 8 min): 3.8% | Accumulated % of solubilized of remaining active substance at a given time (min) ([2]; 9 min): 4.2% | Accumulated % of solubilized of remaining active substance at a given time (min) ([2]; 10 min): 4.6% | Accumulated % of solubilized of remaining active substance at a given time (min) ([2]; 20 min): 8.8% | Accumulated % of solubilized of remaining active substance at a given time (min) ([2]; 30 min): 12.6% | Accumulated % of solubilized of remaining active substance at a given time (min) ([2]; 40 min): 16.4%
